Assays:
H3255 (lung) = experiment: Cell survival assay, H3255; type: cell-based, human
Description: (§1) For Skp2 inhibitor administration, 5-10×10^3 of cells with were seeded in 12 wells in triplicate, 24 h later, treated with compound #25 (refreshed every two days). Four days later, cells were harvested, stained with trypan blue, and viable cells were counted directly under the microscope using hemocytometer. For doxorubicin treatment, 8×10^3 of PC3 cells with were seeded in 12 wells in triplicate, 24 h later, treated with various dose of compound #25 in the presence or absence of 10 nM doxorubicin or 25 ng/ml cyclophosphamide for four and three days, respectively (refreshed every two days). After treatment, cells were harvested, stained with trypan blue, and viable cells were counted directly under the microscope using hemocytometer. Cellular senescence was determined by assessing SA-b-gal activity using senescence detection kit according to manufacturers' standard procedures (Calbiochem).

Skp2 Trp127Ala mutant = biological target: T1, Skp2 Trp127Ala mutant (Homo sapiens, UniProt Q13309, W127A); experiment: In vivo p27 ubiquitination assay, Skp2 Trp127Ala mutant; type: cell-based
T1 construct: expressed in transfected cells; host or cells: 293T
Description: (§2) In vivo and in vitro ubiquitination assays were performed as described with modification (Lin et al., 2009; Yang et al., 2009). For in vitro ubiquitination assay, recombinant GST-Akt proteins were expressed, purified and eluted from the bacterial lysates of BL21 competent cells. Flag-Skp2 SCF complex were expressed in 293T cells, immunoprecipitated by anti-Flag antibody, and eluted from Protein A/G beads using Flag peptides according to manufacturers' standard procedures. Purified GST-Akt and Flag-SCF proteins were incubated for 3 h at 37° C. in the absence and presence of Skp2 inhibitor. After incubation, protein mixtures were diluted in E1A Buffer and the supernatant fluid was precleared with Protein A/G beads for 1 h, and immunoprecipitated overnight with anti-Flag antibody, after which Protein A/G beads were added for an additional 1 h. Beads were washed 4 times with E1A Buffer. Proteins were eluted in SDS-sample buffer and subjected to immunoblotting analysis. For in vivo ubiquitination assay, 293T cells were transfected with the indicated plasmids and cultured in the absence or presence of Skp2 inhibitor for 48 h. 6 h before harvest, cells were cultured in the presence of MG132. After cell harvest, cells were lysed by the denatured buffer (6M guanidine-HCl, 0.1M Na2HPO4/NaH2PO4, 10 mM imidazole). […]

WT Skp2 = biological target: T2, WT Skp2 (Homo sapiens, UniProt Q13309); experiment: In vitro binding of compound to GST-Skp2 by LC-MS/MS; conditions: preexisting Skp2-Skp1 complex
T2 construct: made in house
Description: (§3) To corroborate this notion, the in vitro binding assay was performed to compare the binding affinity of compound #25 to WT Skp2 and Skp2 mutants (Trp97Ala and Asp98Ala) using LC-MS/MS analysis. Of note, since the nature of recombinant Skp2 protein was unstable in the absence of Skp1 (Li et al., 2005), the GST-Skp2 WT, GST-Skp2 Trp97Ala and GST-Skp2Asp98Ala mutants subjected to LC-MS/MS analysis were co-expressed, purified and preformed complex with Skp1 (FIG. 10A).

[1] = system: Skp2 Trp97Ala and Asp98Ala mutants binding to Skp1; experiment: In vitro Skp2-Skp1 binding assay with Skp2 mutants; conditions: FIG. 2D
Description: For in vitro GST-Skp1 and Skp2 interaction, GST-Skp1 proteins purified from the bacterial lysates of BL21 competent cells transformed with pGEX-4X1-Skp1 using the Glutathione-Agarose beads according to the manufacturer's standard procedures. The GST-Skp1 proteins bound to glutathione Sepharose beads (Amersham Biosciences) were then incubated with the in vitro translated [35^S]-Skp2 for 2 hours at 4° C. in the interaction buffer with or without compound #25 (20 mM HEPES, PH 7.9, 150 mM KCl. 5 mM EDTA, 0.5 mM DTT, 0.1% (v/v) Nonidet p-40, 0.1% (w/v) BSA, 1 mM PMSF, and 10% Glycerol), washed by the NETN buffer (20 mM Tris, pH 8.0, 100 mM NaCl, 6 mM MgCl2, 1 mM EDTA, 0.5% Nonidet P-40, 1 mM DTT, 8% glycerol, 1 mM PMSF) 4 times, and subjected to 8% SDS-PAGE, followed by autoradiography.

[2] = system: p27 and p21 protein expression; experiment: Immunoblotting of SCF substrates in prostate cancer cells; type: cell-based
Excerpt: (§4) Cells were lysed with RIPA buffer in the presence of protease inhibitor cocktail (Roche). The following antibodies were used for immunoblotting analysis: anti-Skp2 (Invitrogen), anti-Xpress (Invitrogen), anti-p27 (BD transduction laboratories), anti-p21 (Santa Cruz), anti-β-actin (Sigma), anti-α-tubulin (Sigma), anti-phospho-Akt (Thr308) (Cell Signaling), anti-phospho-Akt (Ser473) (Cell Signaling), and anti-HA (Convance). For immunohistochemistry, tissues were fixed in 10% formalin and embedded in paraffin in accordance with standard procedures. Sections were stained with anti-Skp2 (Invitrogen), anti-p27 (Epitomics), anti-phosphoAkt (SerS473) (Cell signaling), anti-Glut1 (Abcam), and anti-Ki67 (Abcam). TUNEL staining was performed by using in situ cell death detection kit-POD (Roche).

[3] = system: Skp2 Trp97Ala and Asp98Ala mutants; experiment: In vivo p27 ubiquitination assay, Skp2 Trp97Ala and Asp98Ala mutants; type: cell-based
Description: as §2

Skp2 protein expression = experiment: Skp2 protein expression, immunoblotting; type: cell-based; conditions: higher dosage (20 μM)
Excerpt: as §4

FBW7 = biological target: T3, FBW7 (Homo sapiens, UniProt Q969H0); experiment: In vivo ubiquitination assay, FBW7 substrates; type: cell-based; conditions: in the presence of proteasome inhibitor
T3 construct: expressed in transfected cells; host or cells: 293T
Description: as §2

[4] = system: EGF-mediated Akt phosphorylation and activation; experiment: EGF-mediated Akt phosphorylation, immunoblotting; type: cell-based; conditions: various cancer cell lines
Excerpt: as §4

[5] = system: Skp2 Trp97Ala and Asp98Ala mutants; experiment: In vitro binding of compound to GST-Skp2 mutants by LC-MS/MS; conditions: preexisting Skp2-Skp1 complex
Description: as §3

PC3 xenograft tumors = experiment: PC3 tumor xenograft in nude mice; type: in vivo
Description: Nude mice bearing PC3 or A549 xenograft tumors (around 100 mm^3) were administrated with vehicle or 80 mg/kg compound #25 on a daily basis. Tumor size was measured weekly with a caliper, and tumor volume was determined with the standard formula: L×W2×0.52, where L is the longest diameter and W the shortest diameter.

[6] = system: p53-deficient prostate cancer cells; experiment: Cell senescence assay (SA-b-gal); type: cell-based
Description: as §1

T2 sequence (Q13309 whole entry): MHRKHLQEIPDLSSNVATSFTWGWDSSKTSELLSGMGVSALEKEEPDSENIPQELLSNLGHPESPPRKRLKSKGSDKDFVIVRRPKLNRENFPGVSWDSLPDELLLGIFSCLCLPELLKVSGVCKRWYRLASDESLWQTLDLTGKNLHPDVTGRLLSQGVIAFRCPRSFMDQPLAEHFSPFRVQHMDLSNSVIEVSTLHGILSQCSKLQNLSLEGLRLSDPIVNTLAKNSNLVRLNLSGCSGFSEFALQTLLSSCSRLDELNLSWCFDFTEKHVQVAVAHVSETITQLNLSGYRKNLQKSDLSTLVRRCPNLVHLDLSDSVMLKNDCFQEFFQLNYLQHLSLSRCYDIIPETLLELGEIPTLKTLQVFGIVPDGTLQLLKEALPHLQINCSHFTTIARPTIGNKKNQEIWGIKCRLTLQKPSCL
T1 sequence (Q13309 whole entry W127A): as the sequence (Q13309 whole entry) above, with W127A counted along it
T3 sequence (Q969H0 whole entry, species assumed): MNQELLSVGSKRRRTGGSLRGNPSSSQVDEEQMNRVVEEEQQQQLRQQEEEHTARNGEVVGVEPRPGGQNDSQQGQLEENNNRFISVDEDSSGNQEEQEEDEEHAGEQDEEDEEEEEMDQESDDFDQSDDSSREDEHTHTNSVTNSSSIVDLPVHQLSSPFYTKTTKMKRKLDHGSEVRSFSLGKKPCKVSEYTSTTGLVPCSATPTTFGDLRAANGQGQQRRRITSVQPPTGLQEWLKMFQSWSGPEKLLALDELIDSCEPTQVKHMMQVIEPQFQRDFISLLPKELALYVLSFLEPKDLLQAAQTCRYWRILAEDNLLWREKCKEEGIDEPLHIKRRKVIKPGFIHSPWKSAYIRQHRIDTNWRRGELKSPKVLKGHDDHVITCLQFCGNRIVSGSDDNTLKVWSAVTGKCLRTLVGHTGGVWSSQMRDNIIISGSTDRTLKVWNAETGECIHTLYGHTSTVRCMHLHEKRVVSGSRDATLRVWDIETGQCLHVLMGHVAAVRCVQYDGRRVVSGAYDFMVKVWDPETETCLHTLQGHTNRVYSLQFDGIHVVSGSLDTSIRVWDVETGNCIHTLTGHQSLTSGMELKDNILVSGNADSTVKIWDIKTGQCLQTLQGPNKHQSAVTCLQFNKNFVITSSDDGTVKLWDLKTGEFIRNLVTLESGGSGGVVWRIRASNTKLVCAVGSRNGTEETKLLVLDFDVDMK

`CCc1cc2c(=O)c(-c3nc4ccccc4s3)coc2c(CN2CCCCC2)c1O` [compound #25, 3-(1,3-benzothiazol-2-yl)-6-ethyl-7-hydroxy-8-(1-piperidinylmethyl)-4H-chromen-4-one] was tested, and the cell viability (H3255 (lung)) was “potent suppressive effect on viability”, the “E3 ligase activity of Skp2 Trp127Ala mutant” value (Skp2 Trp127Ala mutant) was “abrogated E3 ligase activity” and the “binding to WT Skp2” value (WT Skp2) was “readily bound”. For the same compound, the “binding of Skp2 Trp97Ala and Asp98Ala mutants to Skp1” value [1] was “unable to inhibit”, the “stabilization/induction of SCF substrates” value ([2]; Skp2, Fbw7 and β-TrCP substrates, FIGS. 3E and 11A) was “selectively stabilized Skp2 substrates” and the “endogenous p27 and p21 protein expression” value ([2]; prostate cancer cells) was “induced endogenous p27 and p21 protein expression”. The “E3 ligase activity of Skp2 Trp97Ala and Asp98Ala mutants” value [3] was “failed to inhibit”, the Skp2 protein expression (Skp2 protein expression) was “downregulated Skp2 protein expression” and the “FBW7-mediated ubiquitination (c-Jun, MCL-1)” value (FBW7) was “no appreciable effect”. For the same compound, the “EGF-mediated Akt phosphorylation and activation” value [4] was “profoundly inhibited”, the “binding to Trp97Ala and Asp98Ala mutants” value [5] was “failed to interact” and the “prostate tumor growth in vivo” value (PC3 xenograft tumors; IP injection) was “potent effect”. For the same compound, the “p27, p21, apoptosis, Akt activation and Glut1 in prostate tumor tissues” value (PC3 xenograft tumors; histological analysis) was “induced expression of p27 and p21, apoptosis, and suppressed Akt activation and Glut1 expression” and the cellular senescence [6] was “triggered cellular senescence”.
